Measurements reported in patent US20160370353A1, “METHOD FOR DISTINGUISHING SECRETORY GRANULES OF DIFFERENT AGES” (TECHNISCHE UNIVERSITÄT DRESDEN MEDIZINISCHE FAKULTÄT CARL …, priority 2008, published 2016).

System: SNAP-tag (hINS-SNAP) in INS-1 cells
Assay: Dual-color labeling (TMR-Star, BTP block, BG505) of living INS-1 cells expressing hINS-SNAP; co-localization analysis
Assay type: cell-based, rat
Method: The first labeling was carried out for 15 min with 2 μM TMR (red) in normal media (I ml per well), followed by 2×PBS wash and 30 min, incubation in media without the SNAP substrate. The labeling with 10 μM BTP lasted 20 min. followed by two washings with PBS and 30 min incubation in media without BTP. The period between the BTP administration and the BG505 (green) administration was 4 hour long, so that any unbound BTP had sufficient time to be cleared out of the cells, thus allowing the labeling of newly synthesized hlns-SNAP. During this period […] additional washings were performed: two times with PBS and two times with media.
Cells were then incubated with 10 μM BG505 for 30 min, followed by two washings with PBS, 30 min incubation in media and another PBS washing. After the last washing, the cells were fixed (4% PFA, pH: 7.4 for 10 min at 4° C.) and embedded (ProLong Gold antifade reagent with DAPI, P36931, Molecular Probes). […]
Software analysis of the acquired images allowed the generation of images representing the co-localized pixels from both channels and also the characteristic scattered plots. […] The calculated Pearson's coefficients (10 μM BTP: 0.515; 0 μM BTP: 0.829) calculated according to Bolte et al., are in agreement with this interpretation.

Chain of SNAP-tag (hINS-SNAP) in INS-1 cells (P16455 1-182 C62A/K125A/A127T/R128A/G131K/G132T/M134L/R135S/C150S/N157G/S159E limits assumed): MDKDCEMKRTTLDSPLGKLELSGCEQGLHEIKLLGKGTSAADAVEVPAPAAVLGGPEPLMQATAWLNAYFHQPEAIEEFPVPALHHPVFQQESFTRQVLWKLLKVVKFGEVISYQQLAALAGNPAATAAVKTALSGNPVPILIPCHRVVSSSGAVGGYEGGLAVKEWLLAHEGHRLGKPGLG

bromothenylpteridine [BTP]
Pearson's coefficient (co-localization of TMR and BG505 pixels) (INS-1 cells exposed sequentially to TMR, 10 μM BTP and BG505, control without blocker (0 μM BTP): 0.829): 0.515
Co-localized pixels (white) of red and green channels (blocking step with BTP interposed between sequential labelings with TMR-Star and BG505, many co-localized pixels when BTP omitted): No co-localization
